In patent US7078566B2, “Salts of guanidine derivatives and pharmaceutical preparations consisting thereof” (Biosphinks Aktiengesellschaft, priority 2001, dated 2006):

How the values were obtained:
[1] = Solubility of C11AG salts in potassium phosphate buffer (crystal formation by microscope); details: for Crystals: pH 7.4, 4 mM C11AG salt
[2] = Solubility of C11AG salts in water
[3] = biological target: neutral sphingomyelinase from Bacillus cereus (Bacillus cereus, UniProt P11889); assay: biochemical; details: pH 7.2, 37° C., 24 h
Chain of neutral sphingomyelinase from Bacillus cereus (P11889 28-333): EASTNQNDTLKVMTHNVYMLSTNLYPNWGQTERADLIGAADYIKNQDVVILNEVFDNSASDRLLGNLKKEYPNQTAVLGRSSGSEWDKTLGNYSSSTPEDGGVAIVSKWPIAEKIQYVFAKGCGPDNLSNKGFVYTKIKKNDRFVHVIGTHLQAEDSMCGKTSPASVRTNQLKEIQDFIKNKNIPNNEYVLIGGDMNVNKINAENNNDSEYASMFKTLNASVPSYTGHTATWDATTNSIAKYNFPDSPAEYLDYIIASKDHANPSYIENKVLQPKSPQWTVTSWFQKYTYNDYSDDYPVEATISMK
Method: Paranitrophenylphosphoryl-choline was dissolved to a final concentration of 1 mg/ml in 0.1 M Tris at pH 7.2 and 10 mM […]. […] The optical density is a measure for the quantity of cleaved substrate. Dose-effect curves were used to determine the concentration at which the enzyme activity is inhibited by 50% (IC50).

[4] = tested on: nude mice (strain: Swiss, Nu/Nu); assay: Physiological tolerability after subcutaneous application (tissue damage after 24 h)
Method: Aliquots of 0.1 ml each were administered to 3 nude mice (strain: Swiss, Nu/Nu) by subcutaneous application. After 24 h, the degree of tissue damage was recorded. The results are shown in Table 4, in which no visible damage=−, reddening=+, edemas=++, and necroses=+++.

DSS induced colitis = assay: DSS induced colitis, body weight loss; type: in vivo, mice (strain Balb C); details: in food equimolar to 0.5 mg C11AG/g
Excerpt: (§1) Female mice (strain Balb C, 9 weeks old) were obtained from Charles River and were kept under specific pathogen free conditions under an artificial day/night rhythm. Animals were fed with Altromin standard diet and received water ad libitum. Colitis was induced by addition of dextran sulfate (DSS) (MW 36,000–50,000, ICN, Aurora, Ohio, lot 2387F) to drinking water at a concentration of 7.5%. For C11AG treatment the free base of C11AG (lot 2-3-3) was used. Animals received Altromin powder food, mixed with 0.5 mg C11AG/g or with equimolar concentration of C11AG salt (i.e. 0.785 mg/g C11AG hexanate). As determined in calibration experiments Balb C mice (8–12 weeks old) consume each day 150 g food/kg body weight. The corresponding daily doses of C11AG were therefore: 75 and […]. Body weight loss is one of the most evident symptoms of DSS induced colitis. Mean body weight was determined every day for each group and the weight loss was calculated.
as §1, with “libitum.Colitis” for “libitum. Colitis”, “Animals received Altromin powder food, mixed with 0.5 mg C11AG/g or with equimolar concentration of C11AG salt (i.e. 0.785 mg/g C11AG hexanate).” left out, “calculated. Mean weight loss was added over a period of eleven days.” for “calculated.”

[5] = IC50, paranitrophenylphosphoryl-choline substrate
[6] = paranitrophenylphosphoryl-choline substrate
[7] = Example 10, mean weight loss added over eleven days, FIG. 3

Row | Compound | Crystals ([1]; phosphate 1 mM–1,000 mM) | Solubility in water [2] [µg/mL] | IC50 [3, 6] [µg/mL] | Protection from DSS induced weight loss as compared to the free base (DSS induced colitis; [7]) | other results
1 | CCCCCCCCCCC=NNC(=N)N [Oenanthate, undecylideneaminoguanidine oenanthate] | no | >10000 | – | – | IC50 [3, 5]: 3.31 µM
2 | Undecylenate | – | 100 | – | – | –
3 | CC(=O)O.CCCCCCCCCCC=NNC(=N)N [Acetate, undecylideneaminoguanidine acetate] | – | >10000 | 0.85 | – | Crystals ([1]; phosphate 1 mM): no; Crystals ([1]; phosphate 10 mM–1,000 mM): yes; phosphate concentration at which the salt precipitates (forms insoluble phosphates) ([1]; potassium phosphate buffer pH 7.4, 4 mM C11AG salt): 10 mM; concentration up to which well-tolerated / no damage ([4]; 0.1 ml subcutaneous, nude mice, after 24 h): 20000 µM
4 | Dodecylphosphonate | – | 100 | – | – | –
5 | CC(O)C(=O)O.CCCCCCCCCCC=NNC(=N)N [Lactate, undecylideneaminoguanidine lactate] | – | – | 0.9 | – | Crystals ([1]; phosphate 1 mM): no; Crystals ([1]; phosphate 10 mM–1,000 mM): yes
6 | undecylideneaminoguanidine hexanoate [hexanoic acid salt of C11AG] | – | – | – | more pronounced | Protection from DSS induced weight loss as compared to the free base (DSS induced colitis; Example 9, mean weight loss per day, FIG. 2): more pronounced
7 | undecylideneaminoguanidine pelargonate | no | >10000 | 0.95 | – | –
8 | undecylideneaminoguanidine octanoate [octanoic acid salt of C11AG] | – | – | – | more pronounced | –
9 | CCCCCCCCCCC=NNC(=N)N [Chloride, reference compound] | yes | – | – | – | solubility ([2]; water): > 10000 µg/mL; lowest concentration leading to reddening and edemas ([4]; Swiss Nu/Nu (nude), mouse, in vivo, sc, 24 h): 20 mM; IC50 [3, 5]: 3.53 µM
10 | undecylideneaminoguanidine decanoate [Decanate] | – | – | – | more pronounced | –
